Assay results as given in patent US10457961B2, “Chimeric proteins and methods of regulating gene expression” (The Board of Trustees of the Leland Stanford Junior …, priority 2016, dated 2019).

Tests used:
[1] = system: 12xCSL promoter H2B-citrine reporter; test: H2B-citrine reporter driven by 12xCSL promoter in CHO cells with sasgCSL; format: cell-based, Chinese hamster; conditions: with S. aureus-specific sgRNA (sasgCSL)
Source text: Chimera modularity was further explored by testing another Cas9 ortholog in a similar reporter assay (H2B-citrine driven by a 12×CSL promoter that also allows wild-type NICD to bind). A Staphylococcus aureus dCas9 was introduced in the NC5 design. This resulting S. au.
All cell lines used in FIGS. 31A-31F were based on the cell line T-Rex-CHO-K1 (Invitrogen). Stable cell clones of UAS-H2B-citrine and 12×CSL-H2B-citrine were obtained. Additional cell lines were generated from lentiviral transduction (of all sgRNAs and SV40-EGFP) or plasmid transfection using TransIT-LT1 reagent (Minis Bio) per manufacturer's instructions, followed by appropriate antibiotic selection and maintenance. Stably transfected clones expressing NC5 and sgUAS in the UAS-H2B-citrine line were isolated by FACS, after 2 weeks of puromycin and geneticin selection. All CHO cell lines were grown in Alpha MEM with Earle's Salts (Irvine Scientific) supplemented with 10% Tet System Approved FBS (Clontech), 100 U/mL of penicillin and streptomycin, 2 mM L-glutamine (Gibco) and 10 μg/mL blasticidin (VWR International) at 37° C. with 5% CO2 in a humidified incubator.
Surface adsorption of Delta: Experiments described in this example were performed with cells plated on 24- or 48-well plates (Corning) at 1.5×10^4 cells/mL. […]

pTET-EGFP reporter = test: EGFP reporter activation by dCas9-VPR iNLS variants in HEK293 pTET-EGFP sgTET cells; format: cell-based, human
Source text: Cas9 found at amino acid residues 647-670. […] Representative histograms of EGFP activation in the presence or absence (bottom) of constructs and quantification of EGFP activation (normalized to untransfected cells) is shown (SEQ ID NO: 31, 32). […] FIGS. 35C and 35D show visually by microscopy and quantitatively that adding a synthetic NLS to the N-terminus of iNLS-mutated dCas9-VPR partially restores EGFP activation.
Cas9. This iNLS sequence ([…] (SEQ ID NO: 31)) of amino-acid residues was mapped to a helix-linker-helix motif in the crystal structure of S. py. Cas9. […] Mutating 6 arginine or lysine residues of the iNLS to alanines ([…] (SEQ ID NO: 32)) in a dCas9-VPR-mCherry construct impaired EGFP activation (from 18-fold down to 4-fold) in HEK293 reporter cells. […] Disrupting this iNLS motif by mutating arginine and lysine residues to alanines […] […] Representative histograms of EGFP reporter are shown to the right; percentage of cells considered ‘ON’ had reporter intensities above untransfected ‘OFF’ cells.

luciferase reporter gene = test: Luciferase reporter activation by chimeric CXCR4-dCas9-VPR in HEK293 cells; format: cell-based, human
Source text: FIGS. 23A and 23B show the results from three independent experiments testing the activity of a chimeric CXCR4-dCas9-VPR-mCherry 2301 in host cells, e.g., HEK293 cells. After ligand binding 2311, the β2-arrestin-protease was recruited to the activated receptor and the protease released the dCas9-VPR-mCherry from the receptor 2321. The expression construct for the β2-arrestin-protease is shown as 2351. The reporter construct is shown in 2341. In each experiment, the dCas9-VPR was paired with a single guide RNA (sgRNA) that specifically activates luciferase expression, which in turn generates luminescence. In this experiment a sgRNA-BFP was used 2331. In some experiments, a scFv-mCherry-VPR 2305 and/or a dCas9-10×GCN4 2307 was used as a control.
The CXCR4-dCas9-VPR-mCherry 2361 was conditionally expressed from a doxycycline-inducible promoter (TRE3G), such that only addition of doxycycline (Dox) and the presence of a co-activator can trigger expression of the recombinant receptor. Without Dox, there is no luminescence (FIG. 23B). […] Upon Dox addition, chimeric CXCR4-dCas9 was expressed, and luminescence was detected. […] Chimeric GPCR-dCas9 proteins described herein can be expressed in immune cells such as T cells and macrophages. Also, chemotactic experiments can be performed to determine if CXCL12 can serves as a chemoattractant to T cells expressing the chimeric GPCR-dCas9 proteins. […]

GFP reporter = GFP reporter activation by chimeric GPCR-dCas9-VPR receptors in HEK293T cells; format: cell-based, human; conditions: sgRNA and β2-arrestin-protease; presence of ligand (LPA, SDF1, or CNO) compared to absence of ligand
Source text: The released dCas9-VPR was then targeted by sgRNA to a target polynucleotide to alter expression levels of a GFP reporter.

[2] = system: CDKN1B (cyclin-dependent kinase inhibitor 1B); test: CDKN1B upregulation and cell cycle arrest with minimal NC5 variants in HEK293T cells; format: cell-based, human; conditions: cells with minimal NC5 receptor variant and sgCDKN1B
Source text: Minimal NC5 receptor variants were used to elicit Delta-dependent arrest of the cell cycle (FIG. 39A). CDKN1B (cyclin-dependent kinase inhibitor 1B) was targeted in HEK293T cells with sgRNAs (sgCDKN1B). CDKN1B overexpression leads to cellular arrest at the G0/G1 phase (FIG. 39B). […] The Delta-induced CDKN1B upregulation and G0/G1 arrest in cells was abrogated with DAPT (FIGS. 39E and 39F).

[3] = system: UAS promoter controlling H2B-citrine reporter gene; test: Delta-dependent H2B-citrine reporter activation in CHO UAS-H2B cells with sgUAS; format: cell-based, Chinese hamster
Procedure: A fusion construct, NC1, was created by replacing the NICD from human NOTCH1 with the Streptococcus pyogenes dCas9 fused to a tripartite activation domain (VP64, p65, and Rta) (FIG. 31B) with three copies of a nuclear localization signal (NLS) sequence. The construct was fluorescently tagged with mCherry to determine its subcellular distribution. Next, it was determined how the NC1 fusion construct responded to extracellular Delta ligands when transfected in mammalian cells. A Chinese hamster ovary (CHO) reporter cell line was used that was previously developed to dissect Notch-Delta signaling (Sprinzak, D. et al. Cis-interactions between Notch and Delta generate mutually exclusive signalling states. Nature 465, 86-90, doi:10.1038/nature08959 (2010)). The CHO cell line contained an inducible UAS (upstream activating sequence) promoter controlling the citrine (YFP)-tagged reporter gene, histone 2B (H2B). sgRNAs (sgUAS) were stably expressed via lentiviral transduction that allow cleaved dCas9 to bind to the UAS promoter (see Table 6). […] By imaging the fluorescence of nucleus-bound H2B-citrine, it was determined whether NC1 induced H2B expression upon exposure to surface-adsorbed Delta (FIG. 31C). […]
(§1) Cells were trypsinized and analyzed for reporter fluorescence or protein immunofluorescence using a Scanford FACScan analyzer (Becton Dickinson) and standard protocols. […]

tet-inducible EGFP gene = test: EGFP activation in HEK293T tet-inducible EGFP sgTET reporter cells on immobilized Delta; format: cell-based, human; conditions: cells cultured without Delta, and DAPT-treated cells with the highest Delta concentration, 3 days
Procedure: Activation of NC5 receptors by immobilized Delta ligand leads to cleavage and nuclear translocation of dCas9-VPR. dCas9-VPR complexed with a sequence-specific sgRNA (e.g., sgTET) allows for binding of the complex to the (e.g., TET) promoter and activation of EGFP gene (FIG. 31G). […] Cells transfected with dCas9-VPR or NC5 receptor (with or without the γ-secretase inhibitor, DAPT) were cultured with or without immbolized Delta for 3 days. Percentage of activated cells (ON %) is also indicated. Cells are considered ON above the basal intensity of all cells with no construct. […] Mean fold change compared to DAPT-treated condition is indicated.
Surface adsorption of Delta: Experiments described in this example were performed with cells plated on 24- or 48-well plates (Corning) at 1.5×10^4 cells/mL. […] For experiments with CHO cells, 5 μg/mL of hamster fibronectin (Innovative Research) was also adsorbed together with Delta.
Cells were trypsinized and analyzed for reporter fluorescence or protein immunofluorescence using a Scanford FACScan analyzer (Becton Dickinson) and standard protocols. For intracellular proteins, cells were trypsinized and fixed in 4% paraformaldehyde solution for 15 minutes, were incubated for 2 h at room temperature with the appropriate primary antibody in a solution of 0.3% Triton-X 100 (Sigma) with 2% normal donkey serum (Thermo Fisher) in PBS. […]

[4] = system: cyclin-dependent kinase inhibitor 1B (CDKN1B); test: Delta-dependent CDKN1B upregulation and G0/G1 arrest in HEK293 sgCDKN1B cells; format: cell-based, human
Source text: Combining the ability to route native extracellular signals with the discriminatory power of sgRNA-mediated Cas9 binding to virtually any genomic target opens up an exponential amount of signaling pathways and functions (FIG. 32A). The Notch chimeric receptors disclosed herein were used to elicit a novel Delta-dependent arrest of the cell-division cycle. HEK293 cells were stably transduced with lentivirus-packaged sgRNAs that specifically target cyclin-dependent kinase inhibitor 1B (CDKN1B), an endogenous regulator of the cell cycle. […] NC5 was transfected into HEK293 cells stably expressing sgRNAs for CDKN1B (sgCDKN1B) and the cells were subsequently introduced onto bare or Delta-containing surfaces. […] 38% of Delta-exposed, NC5-transfected, and sgCDKN1B^+ cells were determined to be sequestered at the G0/G1 phase, and only 2-16% of cells in all other conditions tested. […]
as §1

S. au. NC5 dCas9 variant: NC5 design with Staphylococcus aureus dCas9
Delta-dependent activation levels of H2B-citrine [1]: exhibited Delta-dependent activation levels similar to wild-type human NOTCH1

mutated-iNLS variant: dCas9-VPR-mCherry with 6 arginine or lysine residues of the iNLS mutated to alanines (SEQ ID NO: 32) (VMAQLKAAAYTGWGRLSAALINGI)
nuclear localization and EGFP reporter activation (pTET-EGFP reporter; HEK293T cells, confocal microscopy): severely impaired nuclear localization and EGFP reporter activation
percentage of cells that activate EGFP (pTET-EGFP reporter; HEK293 reporter cells): ~16%
EGFP activation (pTET-EGFP reporter; HEK293 reporter cells, normalized to untransfected cells): 4 fold
EGFP activation (pTET-EGFP reporter; synthetic NLS added back to the N-terminus): partially restored EGFP activation

CXCR4-dCas9-VPR: CXCR4-V2 tail-TEV cleavage site-dCas9-VPR-NLS-mCherry, SEQ ID NO:3
luminescence (luciferase reporter) (luciferase reporter gene; HEK293 cells, sgRNA activating luciferase, receptor induced with doxycycline): sensitive to increasing concentrations of the CXCR4 ligand, CXCL12
transcription of luciferase gene (luciferase reporter gene; sgTET, TetO promoter, β2-arrestin-protease): regulated by CXCL2 binding
levels of GFP reporter protein (GFP reporter): increased levels of GFP reporter protein

C[C@H](NC(=O)Cc1cc(F)cc(F)c1)C(=O)N[C@H](C(=O)OC(C)(C)C)c1ccccc1 [DAPT]
Delta-induced CDKN1B upregulation and G0/G1 arrest [2]: abrogated

NC5: hNECD-dCas9-VPR-mCherry with LMAN1 MMS sequence at the C-terminus, no synthetic NLS
H2B activation in response to Delta ([3]; CHO reporter cells with NC5 and sgUAS stably integrated, single clone): Three-fold
H2B expression with or without Delta ([3]; transfected CHO UAS-H2B-citrine sgUAS cells, bare or Delta-coated surface, 4 days): exhibited Delta-dependent activation of H2B
EGFP activation (tet-inducible EGFP gene): did not activate EGFP
upregulation of CDKN1B ([4]; 4 days on Delta, compared to bare-surface, untransfected controls): > 2 fold
cells sequestered at the G0/G1 phase ([4]; Delta-exposed, NC5-transfected, sgCDKN1B+ cells): 38%
